Assays:
[1] = system: Alfalfa; assay: Shikimate accumulation in alfalfa over time after glyphosate treatment (Example 1, FIG. 5); assay type: in vivo; details: ROUNDUP WEATHERMAX at 100, 200, 400 and 800 g a.e./ha; 1, 2, 3 and 4 days after treatment
Protocol: (§1) Alfalfa was established in a greenhouse in 4 inch pots and treated with glyphosate at an early vegetative stage. Approximately 8 plants per pot were treated at the V4 growth stage. Plants were treated with ROUNDUP WEATHERMAX in a track sprayer, at 0, 100, 200, 400 and 800 g a.e./ha and returned to the greenhouse. All treatments were replicated 5 times. Leaves were harvested at five time points: immediately after spray (t0), and at 1, 2, 3 and 4 days after treatment. After harvest, leaves were frozen on dry ice, weighed, and then stored at −80 C until extraction and analysis.
(§2) For t0 harvest, leaves were harvested immediately after treatment. For the 1, 2, 3 and 4 day harvest, plants were washed thoroughly with water from a spray hose and then allowed to dry before harvest. This procedure allowed for the measurement of the concentration of shikimic acid as well as an estimate of the concentration of glyphosate treatment (t0) and the amount of glyphosate absorbed and retained in treated leaves (1, 2, 3 and 4 days after treatment).
(§3) Leaf tissue was ground frozen on dry ice to a frozen powder. […]
(§4) Extract analysis was performed using both HPLC/MS and HPLC/uv (210 nm) detection. […] Shikimic acid was also analyzed on a separate Agilent 1100 HPLC system equipped with a 4.6 mm×250 mm, 5 micron ODS2 Waters Spherisorb® column (P/N PSS831915) using a photodiode array detector.

[2] = system: Soybean; assay: Shikimate accumulation in soybean after glyphosate treatment (Example 2, FIG. 6); assay type: in vivo; details: ROUNDUP WEATHERMAX at 100, 200, 400 and 800 g a.e./ha; 1, 2, 3 and 4 days after treatment
Protocol: as §1, with “Soybean plants were established” for “Alfalfa was established”, “Approximately 1 plant” for “Approximately 8 plants”, “pot was” for “pot were”, “the V2” for “the V4”
as §2, §3, §4

[3] = system: E. coli K-12 host strain LBB427, untransformed or transformed with plasmid pXT1457; assay: Treatment of E. coli strains with glyphosate in Vogel-Bonner minimal culture medium (Example 7); assay type: cell-based, Escherichia coli
Protocol: To confirm that the new plasmid was functioning as expected, the wild-type E. coli K-12 host strain LBB427 was transformed with the plasmid pXT1457. Techniques for transforming bacteria, including strains of E. coli, are known in the art (Sambrook and Russell, 2001; Ausubel et al., 2005). The shikimic acid and phenylalanine production levels of this strain were compared to that of the untransformed host strain LBB427. The strains were cultured in 50 milliliters of Vogel-Bonner minimal culture medium (Vogel and Bonner, 1956), consisting of magnesium sulfate heptahydrate (MgSO4-7H2O) at 298 milligrams per liter, anhydrous dibasic potassium phosphate (K2HPO4) at 14.93 grams per liter, sodium ammonium phosphate tetrahydrate (NaNH4HPO4-4H2O) at 5.22 grams per liter, anhydrous citric acid (the free acid form) at 2.73 grams per liter, and glucose at 2.00 grams per liter. The pH of the culture medium was 7.0. For the strain LBB427 transformed with the plasmid pXT1457, ampicillin was included in the culture medium at 100 milligrams per liter. The cultures were grown in flasks, on an incubator shaker operating at 300 rpm and 37 degrees Celsius. At 24 hours after inoculation, the cells were pelleted by centrifugation, and the culture supernatants were analyzed by a high-pressure liquid chromatography (HPLC) assay for shikimic acid and phenylalanine content. To the samples to be assayed, phosphoric acid was added to a final concentration of 6 millimolar. The samples were injected onto a 0.5 centimeter by […] Altec 5 micron Bondapak C-18 column, and the eluate was scanned from 190 to 300 nanometers.
The untransformed host strain LBB427 and the host strain LBB427 transformed with the plasmid pXT1457 were grown in 50 milliliters of the Vogel-Bonner minimal culture medium described in Example 5. For the strain LBB427 transformed with the plasmid pXT1457, ampicillin was included in the culture medium at 100 milligrams per liter. The cultures were grown in flasks, on an incubator shaker operating at 300 rpm and 37 degrees Celsius. At 2.5 hours after inoculation, N-(phosphonomethyl)glycine was added to a concentration of 3.38 grams per liter (20 millimolar). […] At 24 hours after inoculation (i.e., 21.5 hours after N-(phosphonomethyl)glycine addition), the cells were pelleted by centrifugation, and the culture supernatants were analyzed for shikimic acid content using the HPLC assay described in Example 5. The culture supernatants of the host strain LBB427 transformed with the plasmid pXT1457 were also analyzed for phenylalanine content.

[4] = system: E. coli host strain LBB427, untransformed or transformed with plasmid pXT1457 or pXT1483; assay: Growth of E. coli strains under phosphate-limiting conditions combined with glyphosate treatment (Example 9); assay type: cell-based, Escherichia coli; details: for Shikimic acid in the culture supernatant: phosphate-limitation, 20 millimolar, 21.5 hours after addition
From the text: A phosphate-limiting culture medium was developed by the Applicants, containing anhydrous magnesium sulfate (MgSO4) at 192 milligrams per liter, ammonium chloride (NH4Cl) at 5.35 grams per liter, potassium chloride (KCl) at 3.73 grams per liter, sodium chloride (NaCl) at 1.17 grams per liter, triethanolamine (a buffering compound) at 22.3 grams per liter, and glucose at 1.5 grams per liter. The pH of the culture medium was 7.0. […] This culture medium was designated PF culture medium (standing for phosphate-free culture medium). However, a phosphate-limiting medium may be formulated for use in the present invention such that, while not phosphate-free, it contains minimal amounts of phosphate (i.e., is substantially free of phosphate). […] Generally, such a phosphate-limiting medium should contain phosphate at levels no more than about 1 millimolar, and preferably at levels no more than about 100 micromolar.
For pre-growth of the strains, sources of phosphate were supplied to this culture medium in the form of Casamino acids at 2.2 grams per liter and yeast extract at 300 milligrams per liter. This culture medium was designated PF-CAA/YE culture medium (standing for PF culture medium plus Casamino acids and yeast extract).
The untransformed host strain LBB427 and the host strain LBB427 transformed with the plasmid pXT1457 or with the plasmid pXT1483 were grown initially in 50 milliliters of the PF-CAA/YE culture medium described in Example 8. For the strains of LBB427 transformed with the plasmid pXT1457 or with the plasmid pXT1483, ampicillin was included in the culture medium at 100 milligrams per liter. The cultures were grown for 2.5 hours in flasks, on an incubator shaker operating at 300 rpm and 37 degrees Celsius. The cells in these cultures were pelleted by centrifugation and resuspended in the same volume of the PF culture medium described in Example 8. For the strains of LBB427 transformed with the plasmid pXT1457 or with the plasmid pXT1483, ampicillin was included in the culture medium at 100 milligrams per liter. To these resuspended cultures, N-(phosphonomethyl)glycine was added to a concentration of 3.38 grams per liter (20 millimolar). […] At 24 hours after inoculation (i.e., 21.5 hours after N-(phosphonomethyl)glycine addition), the cells were pelleted by centrifugation, and the culture supernatants were analyzed for shikimic acid content using the HPLC assay described in Example 5.
It is possible that not all of the accumulated shikimate-3-phosphate in these cells had been converted into shikimic acid and excreted into the culture medium. […] The cells were pelleted by centrifugation, and the culture supernatant was analyzed for shikimic acid content using the HPLC assay described in Example 5.

[5] = system: E. coli host strain LBB427 transformed with plasmid pXT1483; assay: Shikimic acid from a phosphate-limited high-density fermentation culture with glyphosate (Example 10); assay type: cell-based, Escherichia coli; details: optical density of 40; 20 millimolar; twelve hours after addition; sample at pH 1.0, 60 degrees Celsius for 15 minutes
Protocol: The host strain LBB427 transformed with the plasmid pXT1483 can be grown to high optical densities in a phosphate-limited fermentation culture. Fermentations are conducted in a chemically-defined minimal medium containing 5.9 grams of anhydrous ammonium sulfate ((NH4)2SO4), 1.8 grams of anhydrous dibasic potassium phosphate (K2HPO4), 1.0 grams of monobasic sodium phosphate monohydrate (NaH2PO4—H2O), 550 milligrams of magnesium sulfate heptahydrate (MgSO4-7H2O), 27 milligrams of ferric chloride hexahydrate (FeCl3-6H2O), 0.5 milligrams of zinc sulfate heptahydrate (ZnSO4-7H2O), 0.9 milligrams of cobalt chloride hexahydrate (CoCl2-6H2O), 0.9 milligrams of sodium molybdate dihydrate (Na2MoO4-2H2O), 1.1 milligrams of cupric sulfate pentahydrate (CuSO4-5H2O), 0.3 milligrams of boric acid (H3BO3), and 0.7 milligrams of manganese sulfate monohydrate (MnSO4—H2O) per liter of water. The fermenter is maintained at 37 degrees Celsius. The pH is maintained at 7.0 by the controlled addition of concentrated (about 29%) ammonium hydroxide (NH4OH). […]
Twelve hours after N-(phosphonomethyl)glycine addition, samples of the fermentation cultures are taken for analysis of shikimic acid levels. […] The cells are pelleted by centrifugation, and the culture supernatants are analyzed for shikimic acid content using the HPLC assay described in Example 5.

[6] = LBB427 transformed with pXT1457, 20 millimolar, 21.5 hours after addition

O=C(O)CNCP(=O)(O)O [glyphosate, N-(phosphonomethyl)glycine]
Shikimic acid accumulation in alfalfa leaves over time [1]: accumulates to significantly high levels
Shikimic acid accumulation in soybean leaves [2]: accumulates to significantly high levels
Growth of the cultures ([3]; 3.38 grams per liter (20 millimolar), added 2.5 hours after inoculation, LBB427 and LBB427 with pXT1457): almost completely inhibited
Phenylalanine in the culture supernatant [3, 6]: about 50 milligrams of phenylalanine per OD unit per liter
Shikimic acid in the culture supernatant [3, 6]: did not produce detectable levels
Shikimic acid in the culture supernatant ([3]; untransformed host strain LBB427, 20 millimolar, 21.5 hours after addition): did not produce detectable levels
Shikimic acid in the culture supernatant ([4]; LBB427 transformed with pXT1457): about 250 milligrams of shikimic acid per OD unit per liter
Shikimic acid in the culture supernatant ([4]; LBB427 transformed with pXT1483): about 400 milligrams of shikimic acid per OD unit per liter
Level of shikimic acid in the culture supernatant after acid and heat treatment of the culture sample ([4]; LBB427 transformed with pXT1483, sample with cells adjusted to pH 1.0, 60 degrees Celsius for 15 minutes): about 600 milligrams per OD unit per liter
Shikimic acid in the culture supernatant ([4]; untransformed host strain LBB427): about 200 milligrams of shikimic acid per OD unit per liter
Shikimic acid in the culture supernatant [5]: about 24 grams of shikimic acid per liter
